In publication PMC6878970, “Understanding the physicochemical properties and degradation kinetics of nicotinamide riboside, a promising vitamin B3nutritional supplement” (Food & Nutrition Research, 2019):
Where “and” joins values, the source holds several entries; their conditions need not be identical. Identical values can stand only once.

What was measured:
[1] = Degradation kinetics of NRCl in aqueous solutions (Arrhenius); type: physicochemical; settings: for activation energy Ea of degradation: 55, 65, 75°C, n = 5
Protocol: NRCl degradation products and mechanism were determined and confirmed using ^1H NMR. NRCl degradation kinetics in aqueous solution was determined using three pH environments: pH 2.0, 5.0, and 7.4 (each with a constant ionic strength of 0.3M adjusted using NaCl), and three experimental temperature conditions, namely, 55°C, 65°C, and 75°C, respectively. In all cases, five replicates were used for pH–temperature combinations and each was an individual, sealed, and labelled glass vial with 20mL of the respective buffer. For each experiment, these vials were left overnight to equilibrate to the respective temperature environment in a temperature-controlled oven. At the start of each experiment, the vials were removed and a stock solution of NR was added. Aliquots were then extracted from each vial at this point for a t = 0 and the vials were placed back into the oven until the next time point. The sampling intervals were every 2, 1, and 0.5 h for 55°C, 65°C, and 75°C, respectively, and a total of five time points were used for each individual vial. When an aliquot was removed, it was dispensed into a 2mL micro tube and placed in ice to quench the reaction until preparation for HPLC analysis.

[2] = Combinatorial DSC and 1H NMR (qNMR) thermal decomposition; type: physicochemical; settings: quench-cooled
Protocol: A Bruker® Ultrashield 400 MHz NMR was used for NMR spectroscopy. All samples were prepared using deuterated water. For ^1H NMR spectra acquisition, 256 scans were used. A relative quantitative NMR (qNMR) method was established and validated by comparing the integral values of NR chemical shift peaks to the integral values of the peaks of Nam. The integral of a peak is directly proportional to the number of nuclei the peak represents and the molar concentration of the compound in the sample ([14]). The percentage of NR was calculated using Equation 2 (modified from the literature), where INR H2 and INam H2 were the integral values of the singlet of NR H2 at 9.6 ppm and the singlet for Nam H2 at 8.6 ppm, respectively. N represents the number of nuclei (protons) that contribute to each peak. In this case, N = 1 for both NR H2 and Nam H2 peaks as they represent one proton each.
% NR in smaple=(INR H2/NNR H2)/(INR H2/NNR H2)+(INam H2/NNam H2)×100 Equation 2
DSC was used in conjunction with ^1H NMR spectroscopy to assess NR stability at certain temperatures and confirm compositional change throughout the entire thermal degradation process. […] This was then repeated in pans with no lids and these pans were then put in 1mL of D2O until all the contents were fully dissolved. The resulting D2O solutions were then subjected to ^1H NMR analysis, as previously detailed, to assess the stability of NRCl at each stage of its melting motif.

[3] = parameters: method as in PMID 26791540; settings: cited from earlier work
mammalian cell lines = system: mammalian cell lines; parameters: method as in PMID 18052316; settings: cited from earlier work
[4] = Experimental determination of pKa by UV spectroscopy; type: physicochemical; settings: NaOH solutions; first focused experiment, pH range 11.0–12.2
Protocol: NR stock solution was added to nine respective buffer solutions ranging from pH 1.5 to 12.8 and analysed by UV spectroscopic scanning over 200–500 nm using a Cary 50 scan UV-visible spectrophotometer (Agilent Technologies, USA). […] Equation 1 is a modified Beers–Lambert and Henderson–Hasselbalch equation ([14]). This was used to calculate pKa. AI is the absorbance of the ionised species, AM is the absorbance of the molecular species, and A is the absorbance at any given pH. The same method as above was then repeated using the same parameters and equipment for a duplicate result.
pKa=pH+logAI−A/A−AM Equation 1

[5] = Aqueous solubility determination; type: physicochemical; settings: for solubility at 24 h: aqueous buffer, thermodynamic from solid
Protocol: Three pH environments, namely pH 2.0, 5.0, and, 7.4, were used to determine the aqueous solubility of NR. Each buffer was added to a glass vial and stored at 4°C prior to the experiments. NRCl powder was then slowly added over a 24-h-periodunder constant mixing until the solution was clearly saturated (visual observation, n = 3). Aliquots were then drawn from each vial and passed through a 0.22 μm syringe filter unit (Millipore, Merck, USA). Samples were then analysed using the validated HPLC method.

[6] = NRCl stability in simulated gastrointestinal fluids; type: physicochemical
Protocol: NRCl powder was tested under simulated GI conditions to assess the stability of the raw material in fluids relevant to the GI physiology. These experiments were carried out using a Copley™ dissolution bath equipped with the USP II paddle apparatus at a stirring rate of 75rpm and a temperature of 37°C± 0.1°C. Five dissolution media were tested (Table 2). 0.1N HCl, USP simulated gastric fluid without pepsin (USP SGFW/O pepsin), and USP simulated gastric fluid with pepsin (USP SGF) were used to simulate the stomach environment. Phosphate standard buffer (Int. Pharm. SIF) and simulated intestinal fluid pH 6.8 (USP SIF) were used to simulate the intestinal environment. A 24-h simulation was also performed using the USP prolonged release (USP PR) method whereby for the first 2 h of the experiment the NRCl was added to 750 mL 0.1N HCl. Subsequently, 250 mL of 0.2M trisodium phosphate was added and pH adjusted to pH 6.8 for the remaining 22 h. This step-change pH model simulates the pH change in traversing from the stomach to the intestine ([15]).

human blood NAD+ = system: human blood NAD+; parameters: method as in PMID 27721479; settings: after one single oral dose; cited from earlier work
Sirtuin (SIRT) = system: Sirtuin (SIRT); parameters: method as in PMID 12297502, PMID 14522996, PMID 12899610; settings: cited from earlier work

NC(=O)c1ccc[n+]([C@@H]2O[C@H](CO)[C@@H](O)[C@H]2O)c1 [NR, Nicotinamide riboside]
pre-exponential factor A of degradation ([1]; pH 2.0): 4.8e+10 min⁻¹
activation energy Ea of degradation ([1]; pH 2.0): 75.4 (±2.9) kJ/mol and 75.4 kJ/mol
pre-exponential factor A of degradation ([1]; pH 5.0): 3.2e+10 min⁻¹
activation energy Ea of degradation ([1]; pH 5.0): 76.9 (±1.1) kJ/mol and 76.9 kJ/mol
pre-exponential factor A of degradation ([1]; pH 7.4): 1.8e+12 min⁻¹
activation energy Ea of degradation ([1]; pH 7.4): 82.8 kJ/mol
increase in the degradation rate for every 10°C temperature elevation ([1]; same pH environment): approximate twofold increase
degradation (qNMR) ([2]; solid heated to 115°C): 2%
degradation (qNMR) ([2]; solid heated to 120°C): 7%
degradation (qNMR) ([2]; solid heated to 125°C): 55%
share of the sample that was NR (qNMR) ([2]; solid heated to 140°C): 0.45%
lowest adverse effect level [3]: 1,000 mg/kg/day
no-observed-adverse-effect level (NOAEL) [3]: 300 mg/kg/day
increase of available NAD+ (mammalian cell lines): up to twofold

NC(=O)c1ccc[n+]([C@@H]2O[C@H](CO)[C@@H](O)[C@H]2O)c1 [NRCl, nicotinamide riboside chloride]
pKa [4]: 11.5 ± 0.2
solubility class according to the USP definitions ([5]; all three tested pH environments (2.0, 5.0, 7.4), freely soluble = 100–1,000 mg/mL): freely soluble
solubility at 24 h ([5]; pH 7.4, aqueous buffer): 826 ± 34.4 mg/mL
solubility at 24 h ([5]; pH 2.0): 972.7 ± 8.1 mg/mL
solubility at 24 h ([5]; pH 5.0): 860 ± 31 mg/mL
NRCl remaining ([6]; 0.1N HCl pH 1.2, 37°C, 75rpm, after 2 h): 97.64 ± 0.08%
NRCl remaining ([6]; 24-h GI simulation (USP PR, pH 1.2 then 6.8 after 2 h), after 8 h): 90.51 ± 0.82%
NRCl remaining ([6]; Int. Pharm. SIF pH 6.8, 37°C, after 2 h): 94.32 ± 1.16%
NRCl remaining ([6]; Int. Pharm. SIF pH 6.8, 37°C, after another 2 h (4 h)): 92.71 ± 0.81%
NRCl remaining ([6]; USP SGF (with pepsin) pH 1.2, 37°C, 75rpm, after 2 h): 97.17 ± 0.19%
NRCl remaining ([6]; USP SGF without pepsin pH 1.2, 37°C, 75rpm, after 2 h): 98.59 ± 0.10%
NRCl remaining ([6]; USP SIF pH 6.8, 37°C, after 2 h): 94.71 ± 2.66%
NRCl remaining ([6]; USP SIF pH 6.8, 37°C, after another 2 h (4 h)): 93.54 ± 2.37%
change of degradation rate on raising the pH value from 5.0 to 7.4 ([1]; at each respective temperature): doubled
activation energy Ea of degradation ([1]; pH 7.4): 82.8 (±4.4) kJ/mol
degradation (qNMR) ([2]; solid heated to 115°C): completely intact
increase in human blood NAD+ (human blood NAD+): more than twofold

NC(=O)c1cccnc1 [Nam, Nicotinamide]
Sirtuin (SIRT) inhibition (Sirtuin (SIRT)): known Sirtuin (SIRT) inhibitor
